Data on ten compounds can be found in ChEMBL document CHEMBL3045953, “Pyrazolo[3,4-d]pyrimidine analogues: synthesis, characterization and their in vitro antiamoebic activity” (Med Chem Res, 2013).

The first experiment deals with MCF7. As to the kind of experiment: Cytotoxicity against Homo sapiens (human) MCF-7 cells assessed as decrease in number of viable cells after 48 hr by MTT assay. It counts as ADME, cell-based. Conditions: MCF7, 48 h.
Usually IC50 stands for the concentration that inhibits the measured activity by half. On to `Cc1ccc(S(=O)(=O)n2nc(-c3ccccc3)c3c(N)ncnc32)cc1`, for which the IC50 is over 250 µM.
On to `CC(=O)Nc1ccc(S(=O)(=O)n2nc(-c3ccccc3)c3c(N)ncnc32)cc1`, for which the IC50 is over 250 µM.
As to `Cc1ncc([N+](=O)[O-])n1CCO` [METRONIDAZOLE], the IC50 was over 250 µM.

The test system of a further experiment is Entamoeba histolytica. As to the kind of experiment: Antiamoebic activity against Entamoeba histolytica HM-1:IMSS trophozoite assessed as growth inhibition after 72 hr by microdilution method.
Settings: not given
The format is functional, organism-based. In general terms: In broth dilution the organism is exposed to a series of concentrations in liquid medium.
`Cc1ccc(S(=O)(=O)n2nc(-c3ccccc3)c3c(N)ncnc32)cc1`: the IC50 stood at 570 nM.
For the compound `CS(=O)(=O)n1nc(-c2ccccc2)c2c(N)ncnc21`, the IC50 was determined as 5150 nM.
The same measure, in the same setting: the result for `Nc1ncnc2c1c(-c1ccccc1)nn2S(=O)(=O)c1cc(Cl)ccc1Cl` reads 2370 nM; that for `Cc1ccc(-c2cc(-c3cccc(-c4cc(-c5ccc(C)cc5)nc(N5CCCC5)n4)c3)nc(N3CCCC3)n2)cc1`, 160 nM; that for `Nc1ncnc2c1c(-c1ccccc1)nn2S(=O)(=O)c1ccccc1`, 4240 nM.
Regarding `CC(=O)Nc1ccc(S(=O)(=O)n2nc(-c3ccccc3)c3c(N)ncnc32)cc1`, the IC50 was found to be 680 nM.
Regarding `Nc1ncnc2c1c(-c1ccccc1)nn2S(=O)(=O)c1ccc([N+](=O)[O-])cc1`, the IC50 amounted to 2520 nM.
Take `Nc1ncnc2c1c(-c1ccccc1)nn2S(=O)(=O)c1ccc(Cl)cc1`: the IC50 was 3230 nM.
With `Nc1ncnc2c1c(-c1ccccc1)nn2S(=O)(=O)c1ccc2ccccc2c1`, the IC50 worked out at 3110 nM.
